# Source: paper PMC3953729 (FEBS Open Bio, 2014)
# Tests used:
# [1] = biological target: cyclohexanone monooxygenase (CHMO) (Acinetobacter johnsonii, UniProt P12015); experiment: FAD absorbance change on titration; type: binding
# [2] = biological target: cyclohexanone monooxygenase (CHMO) (Acinetobacter johnsonii, UniProt P12015, L323C/A325C); settings: oxidised enzyme, engineered disulfide formed
smiles,measurement,setting,value
NC(=O)c1ccc[n+]([C@@H]2O[C@H](COP(=O)(O)OP(=O)(O)OC[C@H]3O[C@@H](n4cnc5c(N)ncnc54)[C@H](OP(=O)(O)O)[C@@H]3O)[C@@H](O)[C@H]2O)c1 [NADP^+],Kd,[1],28 µM
same,Kd,[2],15 µM
